The source of these data is US5506221A, “Contignasterol, and related 3-alpha hydroxy-6-alpha hydroxy-7-beta hydroxy-15-keto-14-beta steroids useful as anti-inflammatory and anti-thrombosis agents” (University of British Columbia, priority 1994, dated 1996).

Each structure is given as a SMILES string. “Also recorded” adds a separate entry of the source.

One assay has as its system human basophils. Put plainly: histamine release from human basophils/leukocytes challenged with anti-human IgE. The class given is cell-based. The protocol: A major test to confirm the anti-allergic property of contignasterols is the histamine release from human basophils. […] We used […] human blood leukocytes from allergic (allergy to grass pollen) individuals and prepared leukocytes. The leukocytes were then challenged with anti-human IgE for the release of histamine. The leukocytes were either exposed to 50 μg/ml of contignasterol or saline alone (control). The amount of histamine released from the leukocytes was measured using radioenzymatic assay.

The subject of another assay is tracheal tissues. Put plainly: ovalbumin (OA)-induced contraction of tracheal tissues from sensitized guinea pigs. Type of assay: cell-based. An excerpt:
We have used the contignasterol as defined in paragraph one of the Summary to block bronchoconstriction induced in guinea pigs. Guinea pigs were sensitized to ovalbumine (OA) that can serve as an antigen. The trachea from these animals after exposure to the antigen (OA) contracted in a similar manner as to in vivo situation.

The test system of assay [1] is platelets. Put plainly: platelet aggregation in response to PAF. The class given is cell-based. An excerpt:
(§1) PAF is a local mediator of thrombosis. Similarly, collagen exposure of vessel walls leads to the formation of […] clot in the vessels. Therefore, prevention of the formation of blood clots has direct implication in the treatment of thrombosis and associated cardiovascular diseases.
(§2) PAF and collagen were used at their maximal concentrations to which induced 100% aggregation of platelets.

The test system of assay [2] is platelets. Kind of assay: platelet aggregation in response to collagen. Type of assay: cell-based.
Source text: as §1, §2

Assay [3] relates to allergeninduced challenge. Kind of assay: relative potencies of isomers of contignasterol against allergen-induced challenge. The settings on record: for % Inhibition: allergen-induced challenge; for inhibition: concentration not given. The source says:
Table 4 illustrates the relative potencies of different isomers of contignasterol against allergeninduced challenge.

The subject of another assay is rat mast cells. The settings on record: induced by anti-IgE; cited from earlier work.

In the case of `CC(C)C1CC(O)OC([C@@H](C)[C@H]2CC(=O)[C@@H]3[C@@H]4[C@@H](O)[C@H](O)[C@H]5[C@@H](O)[C@H](O)CC[C@]5(C)[C@H]4CC[C@]23C)C1` (stereo partly shown) [Compound 1, contignasterol], the “inhibition of histamine release from human basophils, in words” value in the assay on human basophils (basophils present in the blood) is on record as “inhibits histamine release”. Further, in the assay on human basophils (contignasterol 50 μg/ml, challenge with anti-IgE, control (no drug) 36.4, basal release 9.8), the “Histamine Release (% of Total)” value was 19.0 % of Total. In addition, the “Contraction (% of Maximal)” value with tracheal tissues (contignasterol 1 μg/ml, ovalbumine 0.001 μg/ml, control 6.6) is on record as 0.00 % of Maximal; in the assay on tracheal tissues (contignasterol 1 μg/ml, ovalbumine 0.01 μg/ml, control 12), -7.7 % of Maximal; with tracheal tissues (contignasterol 1 μg/ml, ovalbumine 0.1 μg/ml, control 28.6) it was -8.5 % of Maximal; in the assay on tracheal tissues (contignasterol 1 μg/ml, ovalbumine 1 μg/ml, control 34.0), 27.5 % of Maximal; in the assay on tracheal tissues (contignasterol 1 μg/ml, ovalbumine 10 μg/ml, control 46.0) it was 30 % of Maximal; in the assay on tracheal tissues (contignasterol 1 μg/ml, ovalbumine 100 μg/ml, control 55.7), 39 % of Maximal. Further, the “Contraction (% of Maximal)” value is listed as 39.7 % of Maximal with tracheal tissues (contignasterol 1 μg/ml, ovalbumine 300 μg/ml, control 56); 0.00 % of Maximal in the assay on tracheal tissues (contignasterol 10 μg/ml, ovalbumine 0.001 μg/ml, control 6.6); -8.0 % of Maximal with tracheal tissues (contignasterol 10 μg/ml, ovalbumine 0.01 μg/ml, control 12); -8.0 % of Maximal in the assay with tracheal tissues (contignasterol 10 μg/ml, ovalbumine 0.1 μg/ml, control 28.6); 6.0 % of Maximal in the assay with tracheal tissues (contignasterol 10 μg/ml, ovalbumine 1 μg/ml, control 34.0); 16.0 % of Maximal in the assay on tracheal tissues (contignasterol 10 μg/ml, ovalbumine 10 μg/ml, control 46.0). Also, the “Contraction (% of Maximal)” value with tracheal tissues (contignasterol 10 μg/ml, ovalbumine 100 μg/ml, control 55.7) is 16.6 % of Maximal; in the assay with tracheal tissues (contignasterol 10 μg/ml, ovalbumine 300 μg/ml, control 56), 29.6 % of Maximal; in the assay with tracheal tissues (contignasterol 50 μg/ml, ovalbumine 0.001 μg/ml, control 6.6), 0.00 % of Maximal; in the assay with tracheal tissues (contignasterol 50 μg/ml, ovalbumine 0.01 μg/ml, control 12), 0.0 % of Maximal; in the assay with tracheal tissues (contignasterol 50 μg/ml, ovalbumine 0.1 μg/ml, control 28.6), 0.0 % of Maximal; in the assay on tracheal tissues (contignasterol 50 μg/ml, ovalbumine 1 μg/ml, control 34.0) it was 5.5 % of Maximal. Moreover, the “Contraction (% of Maximal)” value was 11.1 % of Maximal with tracheal tissues (contignasterol 50 μg/ml, ovalbumine 10 μg/ml, control 46.0); 16.6 % of Maximal in the assay with tracheal tissues (contignasterol 50 μg/ml, ovalbumine 100 μg/ml, control 55.7); 22 % of Maximal in the assay on tracheal tissues (contignasterol 50 μg/ml, ovalbumine 300 μg/ml, control 56). Further, in the assay on tracheal tissues (tissue pretreated, exposed to antigen (OA)), the “effect on antigen-induced tracheal/airway smooth muscle contraction, in words” value was “did not significantly contract; also recorded: inhibited airway smooth muscle contraction”. Besides, in the assay with platelets [1] (PAF), the “inhibition of platelet aggregation caused by PAF, in words” value is “inhibited aggregation of platelets; also recorded: inhibits platelet aggregation”. Also, the activity at 5 µg/mL is 90% in the assay on platelets [1] (Platelet, contignasterol 5 μg/ml, PAF at maximal concentration, read-out: Aggregation (% of Control), PAF) and 70% in the assay with platelets [2] (Platelet, contignasterol 5 μg/ml, collagen at maximal concentration, read-out: Aggregation (% of Control), Collagen). In the assay with platelets [1] (Platelet, contignasterol 10 μg/ml, PAF at maximal concentration, read-out: Aggregation (% of Control), PAF), the activity at 10 µg/mL amounted to 56%. In addition, the activity at 20 µg/mL in the assay on platelets [1] (Platelet, contignasterol 20 μg/ml, PAF at maximal concentration, read-out: Aggregation (% of Control), PAF) was 44%. Moreover, the activity at 30 µg/mL turned out to be 28% in the assay with platelets [1] (Platelet, contignasterol 30 μg/ml, PAF at maximal concentration, read-out: Aggregation (% of Control), PAF) and 0% with platelets [2] (Platelet, contignasterol 30 μg/ml, collagen at maximal concentration, read-out: Aggregation (% of Control), Collagen). Also, the activity at 50 µg/mL with platelets [1] (Platelet, contignasterol 50 μg/ml, PAF at maximal concentration, read-out: Aggregation (% of Control), PAF) was determined as 0%; in the assay with platelets [2] (Platelet, contignasterol 50 μg/ml, collagen at maximal concentration, read-out: Aggregation (% of Control), Collagen), 0%. Moreover, the “inhibition of platelet aggregation caused by collagen, in words” value in the assay on platelets [2] (collagen) is “inhibited aggregation of platelets; also recorded: inhibits platelet aggregation”. Also, the “% Inhibition” value in assay [3] (10 μM) stood at 43%. The molecule further displayed an inhibition in assay [3] of 47%.

Take `CC(C)C1CC(O)OC([C@@H](C)[C@H]2CC(=O)[C@H]3[C@@H]4[C@@H](O)[C@H](O)[C@H]5[C@@H](O)[C@H](O)CC[C@]5(C)[C@H]4CC[C@]23C)C1` (stereo partly shown) [Compound 2, 14-epicontignasterol]: the “% Inhibition” value in assay [3] (10 μM) turned out to be 25%. The same molecule had an inhibition in assay [3] of 25%.

For `COC1CC(C(C)C)CC([C@@H](C)[C@H]2CC(=O)[C@@H]3[C@@H]4[C@@H](O)[C@H](O)[C@H]5[C@@H](O)[C@H](O)CC[C@]5(C)[C@H]4CC[C@]23C)O1` (stereo partly shown) [Compound 3], the “% Inhibition” value in assay [3] (10 μM) was found to be 12%. For the same molecule, the “change in potency on conversion of hemiacetal to methyl acetal, in words” value in assay [3] (10 μM, methyl acetal (3) versus contignasterol (1)) is “significant decrease in the potency”. The same molecule yielded an inhibition in assay [3] of 12%.

Turning to `CC(C)C[C@]1(O)C[C@@H](C)[C@H]2[C@@H]1C(=O)[C@@H]1[C@@H]3[C@@H](O)[C@H](O)[C@H]4C[C@H](O)CC[C@]4(C)[C@H]3CC[C@]21C` [xestobergsterol A, 23S-16β, 23-cyclo-3α,6α,7β,23-tetrahydroxy-5α,14β-cholestan-15-one], the “inhibition of histamine release, in words” value in the assay with rat mast cells is reported as “potent inhibitors of histamine release”.

As for `CC(C)C[C@]1(O)C[C@@H](C)[C@H]2[C@@H]1C(=O)[C@@H]1[C@@H]3[C@@H](O)[C@H](O)[C@H]4C[C@H](O)[C@@H](O)[C@@H](O)[C@]4(C)[C@H]3CC[C@]21C` [xestobergsterol B, 23S-16β,23-cyclo-1β,2β,3α,6α,7β,23-hexahydroxy-5α,14β-cholestan-15-one], the “inhibition of histamine release, in words” value in the assay with rat mast cells is “potent inhibitors of histamine release”.
